Experiments:
[1] = tested on: overall PTP activity in H9C2 cells; experiment: Overall PTP activity (orthovanadate-sensitive fraction) by pNPP assay in H9C2 cells; assay type: cell-based; conditions: 5, 10 and 20 μmol/L for 20 min
Description: For heart tissue: At the end of the treatment, the left ventricle of mouse heart is gently homogenized in ice-cold RIPA buffer with Ser/Thr phosphatase inhibitors inside. Then the samples are centrifuged at 16,100×g for 10 min at 4° C. to remove the debris. Tissue extract (1 mg) is incubated with pNPP (2 mM) in reaction buffer at 37° C. for 60 min on a shaker. At the end of incubation, the reaction is terminated by addition of the same volume of 0.1 N NaOH. The released p-nitrophenolate ion is measured by spectrophotometry reading the absorbance at 405 nm. For H9C2 cell: At the end of the treatment, the cells are collected in ice-cold RIPA buffer with Ser/Thr phosphatase inhibitors inside. Then the samples are centrifuged at 16,100×g for 10 min at 4° C. to remove the debris. The cell lysate is incubated with pNPP […] in reaction buffer at 37° C. for 90 min on a shaker. The reaction is terminated by adding the same volume of 0.1 N NaOH. The released p-nitrophenolate ion is measured by spectrophotometry reading the absorbance at 405 nm. H9C2 cell lines were purchased from ATCC® organization, U.S. Cell cultures were maintained in Dulbecco modified Eagle medium (DMEM) supplemented with 10% fetal bovine serum (FBS) and 1% Penicillin/Streptomycin at 37° C. incubator in a 5% CO2 humid atmosphere.

[2] = tested on: phosphorylation of Paxillin and p130Cas in H9C2 cells; experiment: Immunoblotting of H9c2 total lysates for pTyr of Paxillin and p130Cas; assay type: cell-based; conditions: H9C2 cells treated with indicated concentrations
Description: Hearts from mice received different treatment were gently homogenized in ice-cold RIPA buffer [250 mM Tris-HCl pH 7.4, 750 mM NaCl, detergent mix (5% NP-40, 2.5% Na-deoxycholate and 0.5% SDS), and 1× protease inhibitor cocktail (EDTA free)] containing phosphatase inhibitors (2 mM Na3VO4, 10 mM NaF, and 10 mM Na2P2O7). The homogenates were centrifuged at 16,100×g at 4° C. for 10 minutes to remove the debris. Protein concentrations were determined by Bradford protein assay. Equal amounts of protein extract from those mice were separated by SDS-PAGE on an 8% or 10% polyacrylamide gel and then transferred to PVDF membrane. Membranes were incubated with indicated primary antibody at 4° C. overnight followed by incubated with secondary antibodies for 1 hour at room temperature. The protein abundance was detected by the signal intensity of each specific band. H9C2 cell lines were purchased from ATCC® organization, U.S. Cell cultures were maintained in Dulbecco modified Eagle medium (DMEM) supplemented with 10% fetal bovine serum (FBS) and 1% Penicillin/Streptomycin at 37° C. incubator in a 5% CO2 humid atmosphere.

I/R mice [3] = experiment: Myocardial infarct size (Evans blue/TTC staining) in I/R mice; assay type: in vivo, mouse; conditions: 2 mg/kg IP
Description: (§1) We anesthetized the mouse with 5% isoflurane mixed with room air until loss of sensation of pain and then maintained the mouse in anesthesia status with 2% isoflurane mixed with room air through the whole procedure. The mouse's body temperature was maintained at 37° C. by a heating pad. After the mouse was intubated, we provided artificial ventilation to the mouse with a small animal ventilator. Then the chest cavity was opened at the second intercostal space and homemade chest retractors were utilized to widen the incision. We pulled the pericardium apart carefully and exposed the left anterior descending artery (LAD). A 7-0 silk was put underneath the LAD at the position of the tip of the left auricle, a 6 mm length of PE-10 tube was put on the surface of the LAD, and then a double knot was made to occlude the blood flow of LAD. The success of ligation was confirmed by paling the anterior wall of the LV. For the reperfusion group, the LAD knot would be untied for the purpose of reperfusion after 1 hour of ischemia. For the sham operation group, all procedures were the same except for the knot that occluded the LAD flow. After the successful procedure, we left the silk in situ, closed the chest cavity and weaned the animal from the ventilator.
At the end of experiment, the animal was sacrificed. We opened the chest cavity and exposed the heart and aorta. The heart was perfused with 0.9% saline from the apex until the coronary vessels and myocardium turning into pale color. After saline perfusion, the LAD knot was tied again. 1 mL of 1% Evans blue dye was delivered into the heart through the aortic root by retrograde injection. The dye uniformly perfused the whole heart except in the area of the heart previously perfused by the occluded coronary artery (area at risk, AAR). Then the heart was quickly removed, washed in ice-cold 0.9% saline followed by frozen at −20° C. for 20 minutes, then cut into slices of 1 mm with heart matrix. […] The areas stained with Evans blue negative but TTC-positive (AAR), and TTC-negative area (infarct area) were all measured digitally by ImageJ software. […]

I/R mice [4] = experiment: Histopathology (H&E, Masson Trichrome) one week post-I/R in mice; assay type: in vivo, mouse; conditions: 2 mg/kg IP; one week after I/R
Description: as §1, with “(A) The representative echocardiographic images, (B) the quantification of ejection fraction, (C) the representative histopathologic […]) the quantification of infarct size were obtained from the mice with the indicated treatments for one week post-I/R (n=8). (E) The representative enlarged H&E stain obtained from mice one week post-I/R. The areas highlighted in yellow boxes (left panel) are shown by the enlarged view (right panel). (F) The representative Masson Trichrome stain obtained from mice one week post-I/R. The black arrows indicate the location of inflammation or fibrosis in the myocardium. I/R: I/R-mice treated with the vehicle control, I/R+A: […] treated with Auranofin. (B) and (D) **P<0.01. We anesthetized” for “We anesthetized”, “confirmed by […] anterior wall” for “confirmed by paling the anterior wall”

CC(=O)OC[C@H]1O[C@@H]([S-])[C@H](OC(C)=O)[C@@H](OC(C)=O)[C@@H]1OC(C)=O.CCP(CC)CC.[Au+] [Auranofin, auranofin]
Overall PTP activity in H9C2 cells [1]: decreased
Phosphorylation on the specific Tyr residue in Paxillin or p130Cas [2]: increase
Infarct size (I/R mice [3]; four hours after reperfusion, versus vehicle-only controls): significantly decreased
Infarct size (I/R mice [3]; one day after reperfusion): smaller
Fibrosis (I/R mice [4]): less
Infarct size (pathological study, H&E) (I/R mice [4]): smaller
Infiltrating inflammatory cells (I/R mice [4]): fewer
Myocardial thinning over the injured area (I/R mice [4]): a minor degree

Reference: patent US20190298664A1, “METHOD AND KIT FOR MYOCARDIAL REPERFUSION, AND METHOD FOR ATTENUATING OR REDUCING MYOCARDIAL REPERFUSION INJURY” (Academia Sinica, priority 2018, published 2019)
